This experiment has as its target T1, human glucagon receptor (Homo sapiens, UniProt P47871).
T1 construct: expressed in transfected cells; host or cells: BHK (baby hamster kidney) cells
The experiment is described as follows: Glucagon Binding Assay (III). Particulars: BHK cell membranes, WGA SPA beads, 125I-glucagon; read-out: Glu Bd Assay (III) IC50. The essentials: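 Membranes from BHK cells transfected with the human receptor, prepared at 4 °C, were used in a WGA-bead scintillation proximity binding format. Plates were shaken for 4 hours, left to settle 8–48 hours and then counted. Non-specific binding was defined with 500 nM glucagon.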

T1 sequence (P47871 26-477): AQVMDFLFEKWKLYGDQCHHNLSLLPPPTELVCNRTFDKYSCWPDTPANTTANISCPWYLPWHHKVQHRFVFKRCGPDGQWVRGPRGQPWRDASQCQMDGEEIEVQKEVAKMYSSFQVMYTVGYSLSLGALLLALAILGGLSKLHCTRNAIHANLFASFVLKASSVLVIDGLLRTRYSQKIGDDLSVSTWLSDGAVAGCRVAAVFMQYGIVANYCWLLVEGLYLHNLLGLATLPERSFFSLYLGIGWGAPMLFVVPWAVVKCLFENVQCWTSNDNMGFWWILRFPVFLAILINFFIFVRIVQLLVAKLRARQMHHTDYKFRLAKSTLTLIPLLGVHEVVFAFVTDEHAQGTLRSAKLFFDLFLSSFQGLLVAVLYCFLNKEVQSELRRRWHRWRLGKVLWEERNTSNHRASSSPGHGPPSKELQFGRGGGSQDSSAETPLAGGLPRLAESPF

As to `CC(C)(C)c1ccc(N(Cc2ccc(C(=O)Nc3nn[nH]n3)cc2)C(=O)Nc2cccc(C(N)=O)c2)cc1` [Example 459, 3-{3-(4-tert-Butylphenyl)-3-[4-(2H-tetrazol-5-ylcarbamoyl)benzyl]ureido}benzamide], the IC50 was found to be 2110 nM.

As to `CCNC(=O)c1cccc(NC(=O)N(Cc2ccc(C(=O)Nc3nn[nH]n3)cc2)c2ccc(C(C)(C)C)cc2)c1` [Example 460, N-Ethyl-3-{3-(4-tert-butylphenyl)-3-[4-(2H-tetrazol-5-ylcarbamoyl)benzyl]ureido}benzamide], the IC50 is 1730 nM.

For the compound `CN(C)C(=O)c1cccc(NC(=O)N(Cc2ccc(C(=O)Nc3nn[nH]n3)cc2)c2ccc(C(C)(C)C)cc2)c1` [Example 461, N,N-Dimethyl-3-{3-(4-tert-butylphenyl)-3-[4-(2H-tetrazol-5-ylcarbamoyl)benzyl]ureido}benzamide], the IC50 came to 764 nM.

On to `CCN(CC)C(=O)c1cccc(NC(=O)N(Cc2ccc(C(=O)Nc3nn[nH]n3)cc2)c2ccc(C(C)(C)C)cc2)c1` [Example 462, N,N-Diethyl-3-{3-(4-tert-butylphenyl)-3-[4-(2H-tetrazol-5-ylcarbamoyl)benzyl]ureido}benzamide], for which the IC50 is 1160 nM.

Take `CN(C)C(=O)c1cccc(NC(=O)N(Cc2ccc(C(=O)Nc3nn[nH]n3)cc2)c2ccc(C3CCCCC3)cc2)c1` [Example 463, N,N-Dimethyl-3-{3-(4-cyclohexylphenyl)-3-[4-(2H-tetrazol-5-ylcarbamoyl)benzyl]ureido}benzamide]: the IC50 was determined as 256 nM.

As for `CCCCN(C)C(=O)c1cccc(NC(=O)N(Cc2ccc(C(=O)Nc3nn[nH]n3)cc2)c2ccc(C3CCCCC3)cc2)c1` [Example 464, N-Butyl-N-methyl-3-{3-(4-cyclohexylphenyl)-3-[4-(2H-tetrazol-5-ylcarbamoyl)benzyl]ureido}benzamide], the IC50 came to 95 nM.

With `CCCCNC(=O)c1cccc(NC(=O)N(Cc2ccc(C(=O)Nc3nn[nH]n3)cc2)c2ccc(C3CCCCC3)cc2)c1` [Example 465, N-Butyl-3-{3-(4-cyclohexylphenyl)-3-[4-(2H-tetrazol-5-ylcarbamoyl)benzyl]ureido}benzamide], the IC50 was 606 nM.

As for `CS(=O)(=O)c1ccccc1NC(=O)N(Cc1ccc(C(=O)Nc2nn[nH]n2)cc1)c1ccc(C2CCCCC2)cc1` [Example 466, 4-[1-(4-Cyclohexylphenyl)-3-(2-methylsulfonylphenyl)ureidomethyl]-N-(2H-tetrazol-5-yl)benzamide], the IC50 was determined as 2670 nM.

Turning to `CNS(=O)(=O)c1ccc(Cl)c(NC(=O)N(Cc2ccc(C(=O)Nc3nn[nH]n3)cc2)c2ccc(C3CCCCC3)cc2)c1` [Example 467, 4-[3-(2-Chloro-5-methylsulfamoylphenyl)-1-(4-cyclohexylphenyl)ureidomethyl]-N-(2H-tetrazol-5-yl)benzamide], the IC50 turned out to be 772 nM.

As for `CC(C)c1noc(-c2cccc(NC(=O)N(Cc3ccc(C(=O)Nc4nn[nH]n4)cc3)c3ccc(C4CCCCC4)cc3)c2)n1` [Example 468, 4-{1-(4-Cyclohexylphenyl)-3-[3-(3-isopropyl-[1,2,4]oxadiazol-5-yl)phenyl]ureidomethyl}-N-(2H-tetrazol-5-yl)benzamide], the IC50 was determined as 23 nM.

For `CS(=O)(=O)c1cccc(NC(=O)N(Cc2ccc(C(=O)NCCC(=O)O)cc2)c2ccc(C3CCCCC3)cc2)c1` [Example 469, 3-{4-[1-(4-Cyclohexylphenyl)-3-(3-methylsulfonylphenyl)ureidomethyl]benzoylamino}propionic acid], the half-inhibitory concentration (IC50) came to 631 nM.

As for `O=C(Nc1nn[nH]n1)c1ccc(CN(C(=O)Nc2cccc(S(=O)(=O)CC3CC3)c2)c2ccc(C3CCCCC3)cc2)cc1` [Example 470], the IC50 stood at 116 nM.

As for `O=C(Nc1nn[nH]n1)c1ccc(CN(C(=O)Nc2cccc(S(=O)(=O)C3CCCC3)c2)c2ccc(C3CCCCC3)cc2)cc1` [Example 471], the concentration for half-maximal inhibition (IC50) is 252 nM.

For the compound `C[S+]([O-])c1cccc(NC(=O)N(Cc2ccc(C(=O)Nc3nn[nH]n3)cc2)c2ccc(C3CCCCC3)cc2)c1` (stereo not drawn) [Example 472, 4-[1-(4-Cyclohexylphenyl)-3-(3-methylsulfinylphenyl)ureidomethyl]-N-(2H-tetrazol-5-yl)benzamide], the IC50 turned out to be 255 nM.

On to `CC(C)(C)C1CCC(N(Cc2ccc(C(=O)Nc3nn[nH]n3)cc2)C(=O)c2cc3ccccc3s2)CC1` (stereo not drawn) [Example 473, Benzo[b]thiophene-2-carboxylic acid (4-tert-butylcyclohexyl)-[4-(2H-tetrazol-5-ylcarbamoyl)benzyl]amide], for which the IC50 amounted to 1500 nM.

As to `CC(C)(C)C1CCC(N(Cc2ccc(C(=O)Nc3nn[nH]n3)cc2)C(=O)C2=CCc3ccccc32)CC1` (stereo not drawn) [Example 474, 3H-Indene-1-carboxylic acid (4-tert-butylcyclohexyl)-[4-(2H-tetrazol-5-ylcarbamoyl)benzyl]amide], the IC50 came to 1260 nM.

For `CC(C)(C)C1CCC(N(Cc2ccc(C(=O)Nc3nn[nH]n3)cc2)C(=O)c2cc3ccccc3o2)CC1` (stereo not drawn) [Example 475, Benzofuran-2-carboxylic acid (4-tert-butylcyclohexyl)-[4-(2H-tetrazol-5-ylcarbamoyl)benzyl]amide], the IC50 worked out at 886 nM.

For `CC(C)(C)C1CCC(N(Cc2ccc(C(=O)Nc3nn[nH]n3)cc2)C(=O)/C=C/c2cccs2)CC1` (stereo not drawn) [Example 476, 4-{[(4-tert-Butylcyclohexyl)-(3-thiophen-2-ylacryloyl)amino]methyl}-N-(2H-tetrazol-5-yl)benzamide], the IC50 was 955 nM.

Turning to `O=C(Nc1nn[nH]n1)c1ccc(CN(CC(c2ccccc2)c2ccccc2)C(=O)/C=C/c2c(Cl)cccc2Cl)cc1` [Example 478, 4-{[[3-(2,6-Dichlorophenyl)acryloyl]-(2,2-diphenylethyl)amino]methyl}-N-(2H-tetrazol-5-yl)benzamide], the IC50 came to 2940 nM.

On to `CC(C)(C)c1ccc(N(Cc2ccc(C(=O)Nc3nn[nH]n3)cc2)C(=O)/C=C/c2c(Cl)cccc2Cl)cc1` [Example 479, 4-({(4-tert-butylphenyl)-[3-(2,6-dichlorophenyl)acryloyl]amino}methyl)-N-(2H-tetrazol-5-yl)benzamide], for which the IC50 was 819 nM.

On to `O=C(Nc1nn[nH]n1)c1ccc(CN(C(=O)/C=C/c2c(Cl)cccc2Cl)c2ccc(C3CCCCC3)cc2)cc1` [Example 480, 4-({(4-Cyclohexylphenyl)-[3-(2,6-dichlorophenyl)acryloyl]amino}methyl)-N-(2H-tetrazol-5-yl)benzamide], for which the IC50 worked out at 276 nM.

On to `O=C(Nc1nn[nH]n1)c1ccc(CN(C(=O)c2cccc([N+](=O)[O-])c2)c2ccc(C3CCCCC3)cc2)cc1` [Example 481, 4-{[(4-Cyclohexylphenyl)-(3-nitrobenzoyl)amino]methyl}-N-(2H-tetrazol-5-yl)benzamide], for which the IC50 is 1980 nM.

As for `CSc1cccc(O)c1C(=O)N(Cc1ccc(C(=O)Nc2nn[nH]n2)cc1)c1ccc(C2CCCCC2)cc1` [Example 482, 4-{[(4-Cyclohexylphenyl)-(2-hydroxy-6-methylsulfanylbenzoyl)amino]methyl}-N-(2H-tetrazol-5-yl)benzamide], the IC50 was found to be 302 nM.

Consider `CS(=O)(=O)c1ccc(C(=O)N(Cc2ccc(C(=O)Nc3nn[nH]n3)cc2)c2ccc(C3CCCCC3)cc2)cc1` [Example 483, 4-{[(4-Cyclohexylphenyl)-(4-methylsulfonylbenzoyl)amino]methyl}-N-(2H-tetrazol-5-yl)benzamide], for which the concentration for half-maximal inhibition (IC50) came out at 1120 nM.

Consider `O=C(Nc1nn[nH]n1)c1ccc(CN(C(=O)c2ccc(C3CCCCC3)cc2)c2ccc(C3CCCCC3)cc2)cc1` [Example 484, 4-{[(4-Cyclohexylphenyl)-(4-cyclohexylbenzoyl)amino]methyl}-N-(2H-tetrazol-5-yl)benzamide], for which the concentration for half-maximal inhibition (IC50) stood at 505 nM.

As to `O=C(Nc1nn[nH]n1)c1ccc(CN(C(=O)c2ccc(OC(F)(F)F)cc2)c2ccc(C3CCCCC3)cc2)cc1` [Example 485, 4-{[(4-Cyclohexylphenyl)-(4-triflourmethoxybenzoyl)amino]methyl}-N-(2H-tetrazol-5-yl)benzamide], the IC50 was 810 nM.

For the compound `CC(C)(C)C1CCC(N(Cc2ccc(C(=O)Nc3nn[nH]n3)cc2)C(=O)c2ccc(-c3ccccc3)cc2)CC1` (stereo not drawn) [Example 487, Biphenyl-4-carboxylic acid (4-tert-butylcyclohexyl)-[4-(2H-tetrazol-5-ylcarbamoyl)benzyl]amide], the IC50 was determined as 523 nM.

On to `CC(C)(C)C1CCC(N(Cc2ccc(C(=O)Nc3nn[nH]n3)cc2)C(=O)c2ccc(C3CCCCC3)cc2)CC1` (stereo not drawn) [Example 488, 4-{[(4-tert-Butylcyclohexyl)-(4-cyclohexylbenzoyl)amino]methyl}-N-(2H-tetrazol-5-yl)benzamide], for which the IC50 was determined as 98 nM.

For the compound `CC(C)(C)C1CCC(N(Cc2ccc(C(=O)Nc3nn[nH]n3)cc2)C(=O)c2ccc(OC(F)(F)F)cc2)CC1` (stereo not drawn) [Example 489, 4-{[(4-tert-Butylcyclohexyl)-(4-triflourmethoxybenzoyl)amino]methyl}-N-(2H-tetrazol-5-yl)benzamide], the IC50 stood at 150 nM.

With `CC(C)(C)C1CCC(N(Cc2ccc(C(=O)Nc3nn[nH]n3)cc2)C(=O)c2cc3cc(Cl)ccc3o2)CC1` (stereo not drawn) [Example 490, 5-Chlorobenzofuran-2-carboxylic acid (4-tert-butylcyclohexyl)-[4-(2H-tetrazol-5-ylcarbamoyl)benzyl]amide], the IC50 came to 136 nM.

On to `CC(Oc1ccc(Cl)cc1)C(=O)N(Cc1ccc(C(=O)Nc2nn[nH]n2)cc1)c1ccc(C2CCCCC2)cc1` (stereo not drawn) [Example 491, 4-{[[2-(4-Chlorophenoxy)propionyl]-(4-cyclohexylphenyl)amino]methyl}-N-(2H-tetrazol-5-yl)benzamide], for which the IC50 stood at 264 nM.

Consider `O=C(Nc1nn[nH]n1)c1ccc(CN(C(=O)Cc2cccc(OC(F)(F)F)c2)c2ccc(C3CCCCC3)cc2)cc1` [Example 492, 4-({(4-Cyclohexylphenyl)-[2-(3-trifluoromethoxyphenyl)acetyl]amino}methyl)-N-(2H-tetrazol-5-yl)benzamide], for which the IC50 was 144 nM.

As for `CC(Oc1ccc(OC(F)(F)F)cc1)C(=O)N(Cc1ccc(C(=O)Nc2nn[nH]n2)cc1)c1ccc(C2CCCCC2)cc1` (stereo not drawn) [Example 493], the IC50 was found to be 880 nM.

The IC50 is the concentration at which inhibition is half-maximal.

(Values after US6875760B2 (Novo Nordisk A/S, priority 1999, dated 2005).)
